pIC50: −log10 of the molar value. Each block holds one molecule with its values, some of them ahead of it. Calls of active or inactive are those of the source. No cut-off for these calls is given here.
Legend:
[1] = molecular target: T1, Melanin-concentrating hormone receptor 1 (Homo sapiens, UniProt Q99705); assay: Displacement of 125I-[Phe13,Tyr19]-MCH from MCH-R1 expressing cell membranes
[2] = molecular target: T1, Melanin-concentrating hormone receptor 1; assay: Inhibition of MCH-mediated calcium influx into MCH-R1 expressing cells; format: functional
[3] = molecular target: T1, Melanin-concentrating hormone receptor 1; assay: Inhibition of 125I-[Phe13,Tyr19]-MCH binding to MCH-R1 expressing cell membranes at 1uM
D(2) dopamine receptor [4] = molecular target: T2, D(2) dopamine receptor (Homo sapiens, UniProt P14416); assay: Inhibition of D2(L) at 10uM
[5] = molecular target: 5-hydroxytryptamine receptor 2A (Homo sapiens) (UniProt P28223); assay: Inhibition of 5HT2A at 10uM
[6] = molecular target: T3, 5-hydroxytryptamine receptor 2C (Homo sapiens) (UniProt P28335); assay: Inhibition of 5HT2C at 10uM
T3 sequence (whole entry): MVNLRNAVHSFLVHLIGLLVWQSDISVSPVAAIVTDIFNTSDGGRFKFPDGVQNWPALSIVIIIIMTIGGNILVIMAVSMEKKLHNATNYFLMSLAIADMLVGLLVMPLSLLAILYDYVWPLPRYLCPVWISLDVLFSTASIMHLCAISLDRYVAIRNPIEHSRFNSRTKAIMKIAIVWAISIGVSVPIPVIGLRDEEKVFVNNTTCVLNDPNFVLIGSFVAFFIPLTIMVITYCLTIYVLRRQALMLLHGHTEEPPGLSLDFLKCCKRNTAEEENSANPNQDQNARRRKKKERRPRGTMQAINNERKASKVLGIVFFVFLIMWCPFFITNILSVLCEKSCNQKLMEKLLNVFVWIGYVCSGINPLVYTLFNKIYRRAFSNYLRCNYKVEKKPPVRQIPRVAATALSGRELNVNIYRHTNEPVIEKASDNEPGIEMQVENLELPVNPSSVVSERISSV

[7] = molecular target: 5-hydroxytryptamine receptor 2B (Homo sapiens, UniProt P41595); assay: Inhibition of 5HT2B
Cytochrome P450 2D6 = Cytochrome P450 2D6 (Homo sapiens, UniProt P10635); assay: Inhibition of human CYP2D6 at 1uM; format: ADME
Cytochrome P450 3A4 = Cytochrome P450 3A4 (Homo sapiens, UniProt P08684); assay: Inhibition of human CYP3A4 at 1uM; format: ADME
Cytochrome P450 1A2 = molecular target: T4, Cytochrome P450 1A2 (Homo sapiens, UniProt P05177); assay: Inhibition of human CYP1A2 at 1uM; format: ADME
T4 sequence (P05177 whole entry): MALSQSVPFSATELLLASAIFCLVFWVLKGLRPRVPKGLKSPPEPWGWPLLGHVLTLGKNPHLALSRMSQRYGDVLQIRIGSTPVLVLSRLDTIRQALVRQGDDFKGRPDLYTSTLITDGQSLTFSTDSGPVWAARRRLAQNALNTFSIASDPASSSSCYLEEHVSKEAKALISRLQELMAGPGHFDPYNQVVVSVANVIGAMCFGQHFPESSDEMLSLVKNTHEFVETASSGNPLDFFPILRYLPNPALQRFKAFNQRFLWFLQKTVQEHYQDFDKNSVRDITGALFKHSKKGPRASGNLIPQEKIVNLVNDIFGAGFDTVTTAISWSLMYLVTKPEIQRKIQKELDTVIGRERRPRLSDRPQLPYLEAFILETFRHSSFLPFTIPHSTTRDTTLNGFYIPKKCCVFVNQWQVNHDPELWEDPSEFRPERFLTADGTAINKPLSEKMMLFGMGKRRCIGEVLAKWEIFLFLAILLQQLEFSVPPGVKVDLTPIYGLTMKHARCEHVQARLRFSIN

Cytochrome P450 2C9 = Cytochrome P450 2C9 (Homo sapiens, UniProt P11712); assay: Inhibition of human CYP2C9 at 1uM; format: ADME
Cytochrome P450 2C19 = Cytochrome P450 2C19 (Homo sapiens, UniProt P33261); assay: Inhibition of human CYP2C19 at 1uM; format: ADME
[8] = molecular target: T5, Melanin-concentrating hormone receptor 2 (Homo sapiens, UniProt Q969V1); assay: Inhibition of MCH-R2
[9] = Solubility at pH7.4; format: physicochemical; conditions: buffer, pH 7.4
[10] = molecular target: T6, Adrenergic receptor alpha-1 (Homo sapiens, UniProt P35348+P25100+P35368); assay: Inhibition of adrenergic alpha-1 receptor; format: protein assay
T6 sequence (P35348 whole entry): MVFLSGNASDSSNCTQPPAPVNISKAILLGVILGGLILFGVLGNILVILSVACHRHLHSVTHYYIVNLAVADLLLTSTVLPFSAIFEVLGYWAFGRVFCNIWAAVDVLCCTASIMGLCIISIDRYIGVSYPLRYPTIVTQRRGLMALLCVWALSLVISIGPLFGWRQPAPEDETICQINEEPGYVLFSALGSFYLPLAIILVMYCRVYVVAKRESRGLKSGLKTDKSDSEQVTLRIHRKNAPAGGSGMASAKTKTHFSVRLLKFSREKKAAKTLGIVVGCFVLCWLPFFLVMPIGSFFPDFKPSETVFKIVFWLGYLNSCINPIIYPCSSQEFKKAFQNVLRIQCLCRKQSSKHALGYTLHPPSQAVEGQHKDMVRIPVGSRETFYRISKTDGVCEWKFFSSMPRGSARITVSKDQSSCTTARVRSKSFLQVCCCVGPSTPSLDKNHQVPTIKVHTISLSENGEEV
T6 sequence (P25100 whole entry): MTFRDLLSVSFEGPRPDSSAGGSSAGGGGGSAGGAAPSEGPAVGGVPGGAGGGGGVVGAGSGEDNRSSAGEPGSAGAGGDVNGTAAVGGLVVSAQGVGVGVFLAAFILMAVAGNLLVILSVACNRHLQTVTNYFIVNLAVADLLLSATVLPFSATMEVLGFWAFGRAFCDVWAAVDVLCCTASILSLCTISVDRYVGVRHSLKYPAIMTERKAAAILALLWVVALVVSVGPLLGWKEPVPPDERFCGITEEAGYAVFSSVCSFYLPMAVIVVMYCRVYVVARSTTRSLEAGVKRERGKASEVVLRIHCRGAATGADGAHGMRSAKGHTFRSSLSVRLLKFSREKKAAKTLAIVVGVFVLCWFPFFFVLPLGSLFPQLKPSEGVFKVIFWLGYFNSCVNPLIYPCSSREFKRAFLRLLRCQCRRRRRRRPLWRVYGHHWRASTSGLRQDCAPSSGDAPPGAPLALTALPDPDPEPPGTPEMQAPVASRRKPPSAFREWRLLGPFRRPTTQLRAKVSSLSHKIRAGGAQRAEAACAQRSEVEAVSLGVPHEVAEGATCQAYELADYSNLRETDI
T6 sequence (P35368 whole entry): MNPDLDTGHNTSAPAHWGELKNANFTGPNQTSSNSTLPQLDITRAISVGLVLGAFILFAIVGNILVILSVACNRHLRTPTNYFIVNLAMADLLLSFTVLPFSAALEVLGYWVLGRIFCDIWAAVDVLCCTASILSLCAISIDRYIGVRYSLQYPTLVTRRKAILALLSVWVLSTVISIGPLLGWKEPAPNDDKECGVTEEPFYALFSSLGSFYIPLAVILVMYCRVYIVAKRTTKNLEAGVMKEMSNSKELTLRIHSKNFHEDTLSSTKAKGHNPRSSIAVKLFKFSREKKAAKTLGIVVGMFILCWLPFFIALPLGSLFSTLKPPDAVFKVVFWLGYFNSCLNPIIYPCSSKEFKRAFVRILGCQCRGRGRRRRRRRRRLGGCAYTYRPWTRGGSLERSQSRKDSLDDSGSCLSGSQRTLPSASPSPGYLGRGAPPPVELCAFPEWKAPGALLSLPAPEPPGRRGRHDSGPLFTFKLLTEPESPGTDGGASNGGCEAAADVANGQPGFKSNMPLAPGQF

D(2) dopamine receptor [11] = molecular target: T2, D(2) dopamine receptor; assay: Inhibition of D2(L)
[12] = molecular target: Voltage-gated inwardly rectifying potassium channel KCNH2 (Homo sapiens, UniProt Q12809); assay: Inhibition of hERG in patch-clamp assay; format: toxicity
[13] = molecular target: T5, Melanin-concentrating hormone receptor 2; assay: Inhibition of MCH-R2 at 10uM
[14] = molecular target: Adrenergic receptor alpha-1 (Homo sapiens) (UniProt P35348+P25100+P35368); assay: Inhibition of adrenergic alpha-1 receptor at 10uM; format: protein assay

T1 sequence (Q99705 whole entry): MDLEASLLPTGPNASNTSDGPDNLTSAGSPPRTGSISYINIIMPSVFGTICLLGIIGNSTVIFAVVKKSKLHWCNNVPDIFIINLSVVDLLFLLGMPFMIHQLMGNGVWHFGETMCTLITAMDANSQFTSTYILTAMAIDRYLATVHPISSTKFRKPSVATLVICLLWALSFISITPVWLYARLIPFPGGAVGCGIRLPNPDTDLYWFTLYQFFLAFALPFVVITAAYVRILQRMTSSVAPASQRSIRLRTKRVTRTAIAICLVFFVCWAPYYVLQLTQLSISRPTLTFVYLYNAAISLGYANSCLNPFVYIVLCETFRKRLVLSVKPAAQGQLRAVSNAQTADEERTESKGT
Chain of Cytochrome P450 3A4 (P08684 whole entry): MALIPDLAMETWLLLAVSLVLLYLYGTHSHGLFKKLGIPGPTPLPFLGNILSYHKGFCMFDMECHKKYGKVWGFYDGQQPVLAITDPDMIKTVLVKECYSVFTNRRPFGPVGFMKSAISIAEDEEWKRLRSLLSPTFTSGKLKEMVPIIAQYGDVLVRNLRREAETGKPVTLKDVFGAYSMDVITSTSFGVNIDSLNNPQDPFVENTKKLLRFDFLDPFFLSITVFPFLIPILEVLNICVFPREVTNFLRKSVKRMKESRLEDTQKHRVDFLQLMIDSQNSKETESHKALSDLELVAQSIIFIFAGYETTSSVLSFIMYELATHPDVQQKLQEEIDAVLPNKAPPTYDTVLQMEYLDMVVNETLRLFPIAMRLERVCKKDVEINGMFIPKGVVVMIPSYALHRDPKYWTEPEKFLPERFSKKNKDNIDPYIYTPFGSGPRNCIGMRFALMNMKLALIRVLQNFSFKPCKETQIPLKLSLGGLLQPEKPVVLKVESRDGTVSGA
Chain of Cytochrome P450 2D6 (P10635 whole entry): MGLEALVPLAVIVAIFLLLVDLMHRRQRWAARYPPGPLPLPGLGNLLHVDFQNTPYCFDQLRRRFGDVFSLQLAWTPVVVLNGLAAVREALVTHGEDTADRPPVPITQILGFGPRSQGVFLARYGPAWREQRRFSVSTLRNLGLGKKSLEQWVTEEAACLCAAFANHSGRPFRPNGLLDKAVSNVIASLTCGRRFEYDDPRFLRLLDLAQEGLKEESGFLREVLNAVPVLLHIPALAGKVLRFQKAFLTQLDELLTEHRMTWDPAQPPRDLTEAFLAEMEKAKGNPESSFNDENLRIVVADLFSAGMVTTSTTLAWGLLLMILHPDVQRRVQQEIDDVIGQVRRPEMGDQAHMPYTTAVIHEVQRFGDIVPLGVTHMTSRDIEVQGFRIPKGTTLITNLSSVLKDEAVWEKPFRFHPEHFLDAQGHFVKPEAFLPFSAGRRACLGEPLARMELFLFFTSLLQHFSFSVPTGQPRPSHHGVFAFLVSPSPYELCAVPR
Chain of 5-hydroxytryptamine receptor 2A (Homo sapiens) (P28223 whole entry): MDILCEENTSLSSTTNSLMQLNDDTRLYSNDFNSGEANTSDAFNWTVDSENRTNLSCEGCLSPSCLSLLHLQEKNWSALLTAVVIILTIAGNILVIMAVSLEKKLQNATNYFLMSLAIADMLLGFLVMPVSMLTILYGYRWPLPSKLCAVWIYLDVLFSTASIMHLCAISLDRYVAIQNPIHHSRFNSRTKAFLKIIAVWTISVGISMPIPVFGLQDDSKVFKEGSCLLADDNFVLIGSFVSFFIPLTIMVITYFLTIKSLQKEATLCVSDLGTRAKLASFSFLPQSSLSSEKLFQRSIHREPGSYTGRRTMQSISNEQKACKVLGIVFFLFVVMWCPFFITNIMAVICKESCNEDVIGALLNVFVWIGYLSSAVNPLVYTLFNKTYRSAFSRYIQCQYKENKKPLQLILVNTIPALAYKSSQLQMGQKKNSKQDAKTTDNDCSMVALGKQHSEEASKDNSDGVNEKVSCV
T5 sequence (Q969V1 whole entry): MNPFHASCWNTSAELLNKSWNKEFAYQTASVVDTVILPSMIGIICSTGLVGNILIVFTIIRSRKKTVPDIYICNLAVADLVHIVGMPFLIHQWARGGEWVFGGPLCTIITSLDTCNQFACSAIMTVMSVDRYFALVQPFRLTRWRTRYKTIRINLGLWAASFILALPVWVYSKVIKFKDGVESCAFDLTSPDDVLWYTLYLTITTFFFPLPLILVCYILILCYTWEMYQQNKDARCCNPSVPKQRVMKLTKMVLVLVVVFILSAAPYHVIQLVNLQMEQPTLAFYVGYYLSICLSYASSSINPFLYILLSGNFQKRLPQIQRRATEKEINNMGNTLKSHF
Chain of Cytochrome P450 2C9 (P11712 whole entry): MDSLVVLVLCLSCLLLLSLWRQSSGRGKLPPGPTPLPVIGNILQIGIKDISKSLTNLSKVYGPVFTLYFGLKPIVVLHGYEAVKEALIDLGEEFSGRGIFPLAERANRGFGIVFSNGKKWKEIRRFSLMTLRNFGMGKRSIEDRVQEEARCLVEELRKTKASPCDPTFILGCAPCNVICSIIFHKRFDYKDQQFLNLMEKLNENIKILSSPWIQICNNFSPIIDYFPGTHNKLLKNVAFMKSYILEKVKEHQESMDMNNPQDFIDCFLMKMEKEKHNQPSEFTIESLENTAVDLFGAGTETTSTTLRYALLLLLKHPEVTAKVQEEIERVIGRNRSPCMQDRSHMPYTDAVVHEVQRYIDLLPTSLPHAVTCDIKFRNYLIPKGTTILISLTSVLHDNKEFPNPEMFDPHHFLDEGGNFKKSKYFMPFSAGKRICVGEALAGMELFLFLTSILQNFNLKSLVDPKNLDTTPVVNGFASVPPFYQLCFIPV
Chain of Cytochrome P450 2C19 (P33261 whole entry): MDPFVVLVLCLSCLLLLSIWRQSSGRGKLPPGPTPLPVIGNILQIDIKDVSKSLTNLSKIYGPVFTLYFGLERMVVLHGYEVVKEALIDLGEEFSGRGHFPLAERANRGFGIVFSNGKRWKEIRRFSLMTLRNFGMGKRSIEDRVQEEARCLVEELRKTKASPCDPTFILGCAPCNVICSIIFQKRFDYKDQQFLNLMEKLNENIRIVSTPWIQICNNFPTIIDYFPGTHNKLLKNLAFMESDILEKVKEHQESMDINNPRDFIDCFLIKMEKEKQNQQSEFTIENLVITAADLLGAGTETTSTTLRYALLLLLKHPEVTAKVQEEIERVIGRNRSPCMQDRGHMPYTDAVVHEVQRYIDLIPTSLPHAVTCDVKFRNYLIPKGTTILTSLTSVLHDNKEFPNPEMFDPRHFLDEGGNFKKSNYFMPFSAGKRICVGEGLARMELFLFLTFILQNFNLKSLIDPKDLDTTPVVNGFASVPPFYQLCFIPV
Chain of 5-hydroxytryptamine receptor 2B (P41595 whole entry): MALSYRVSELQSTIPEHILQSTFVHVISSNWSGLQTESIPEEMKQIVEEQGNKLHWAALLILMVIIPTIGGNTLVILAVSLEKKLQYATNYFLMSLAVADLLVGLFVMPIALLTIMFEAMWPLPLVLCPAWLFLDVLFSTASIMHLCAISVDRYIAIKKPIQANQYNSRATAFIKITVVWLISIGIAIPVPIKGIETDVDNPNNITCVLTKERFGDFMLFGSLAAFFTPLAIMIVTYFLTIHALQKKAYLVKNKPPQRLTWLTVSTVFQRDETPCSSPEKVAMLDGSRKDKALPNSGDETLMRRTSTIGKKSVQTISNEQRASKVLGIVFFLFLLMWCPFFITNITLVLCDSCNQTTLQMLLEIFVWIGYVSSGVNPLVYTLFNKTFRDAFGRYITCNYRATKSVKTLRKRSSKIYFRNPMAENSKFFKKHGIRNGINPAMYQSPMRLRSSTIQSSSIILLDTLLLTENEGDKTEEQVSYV
T2 sequence (P14416 whole entry): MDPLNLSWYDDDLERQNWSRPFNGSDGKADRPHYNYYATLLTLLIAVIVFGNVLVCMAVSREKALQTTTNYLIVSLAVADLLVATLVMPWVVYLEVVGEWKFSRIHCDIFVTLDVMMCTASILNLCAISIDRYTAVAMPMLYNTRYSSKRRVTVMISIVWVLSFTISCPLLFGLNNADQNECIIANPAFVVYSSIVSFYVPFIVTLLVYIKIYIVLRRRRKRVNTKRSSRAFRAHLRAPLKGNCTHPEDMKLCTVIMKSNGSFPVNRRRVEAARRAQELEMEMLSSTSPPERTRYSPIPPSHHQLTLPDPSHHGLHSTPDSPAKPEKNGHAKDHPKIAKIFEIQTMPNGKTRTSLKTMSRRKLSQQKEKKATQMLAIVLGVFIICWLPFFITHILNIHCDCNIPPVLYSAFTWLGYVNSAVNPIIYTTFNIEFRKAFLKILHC

Compound: CC(C)Nc1nc2ccc(NC(=O)COc3ccc(C(F)(F)F)cc3)cc2n1C
pIC50 [1]: 7.15 | pIC50 [2]: 7.00

Compound: Cc1nc(N2CCCC2)nc2ccc(NC(=O)COc3ccccc3Cl)cc12
pIC50 [1]: 5.71

Compound: Cn1c(N2CCCC2)nc2ccc(NC(=O)COc3ccc(C(F)(F)F)cc3)cc21
pIC50 [1]: 7.40 | pIC50 [2]: 8.05

Compound: CN(C)CCN(C)c1nc2ccc(NC(=O)COc3ccc(C(F)(F)F)cc3)cc2n1C
inhibition (D(2) dopamine receptor [4]): 19% | inhibition [5]: 22% | inhibition [6]: 7% | pIC50 [7]: 5.82 | Inhibition (Cytochrome P450 2D6): Not Active | Inhibition (Cytochrome P450 3A4): Not Active | Inhibition (Cytochrome P450 1A2): Not Active | Inhibition (Cytochrome P450 2C9): Not Active | Inhibition (Cytochrome P450 2C19): Not Active | pIC50 [1]: 7.60 | pIC50 [2]: 7.55 | pIC50 [8]: < 4.52 | solubility [9]: > 1000 µg/mL | IC50 [10]: 27000 nM

Compound: Cc1nc(N2CCCC2)nc2ccc(NC(=O)COc3cccc(Cl)c3)cc12
Inhibition [3]: 7%

Compound: Cc1nc(N2CCCC2)nc2ccc(NC(=O)COc3ccc(C(F)(F)F)cc3)cc12
pIC50 [1]: 6.78 | pIC50 [2]: 7.00

Compound: Cc1nc(N(C)CCN(C)C)nc2ccc(NC(=O)COc3ccc(C(F)(F)F)cc3)cc12
pIC50 [1]: 6.59 | pIC50 [2]: 6.79

Continued, in another order:

pIC50 [1]: 7.82
Compound: Cc1cc(N2CCCC2)nc2ccc(NC(=O)COc3ccc(C(F)(F)F)cc3)cc12

pIC50 [1]: 6.02
Compound: O=C(COc1ccc(Cl)cc1)Nc1ccc2nc(N3CCOCC3)ccc2c1

pIC50 [1]: 6.41 | pIC50 [2]: 7.39
Compound: COc1ccc(OCC(=O)Nc2ccc3nc(N4CCCC4)nc(C)c3c2)cc1

inhibition [3]: inactive
Compound: O=C(COc1ccc(Cl)cc1)Nc1ccc2nc(N3CCOCC3)cnc2c1

pIC50 [1]: 7.46 | pIC50 [2]: 8.05
Compound: O=C(COc1ccc(C(F)(F)F)cc1)Nc1ccc2nc(N3CCCC3)[nH]c2c1

pIC50 [1]: 6.76
Compound: O=C(COc1ccc(C(F)(F)F)cc1)Nc1ccc2nc(N3CCOCC3)ccc2c1

inhibition [3]: inactive
Compound: O=C(COc1ccc(C(F)(F)F)cc1)Nc1ccc2nc(N3CCOCC3)cnc2c1

pIC50 (D(2) dopamine receptor [11]): < 4.00 | inhibition [5]: 0% | inhibition [6]: 39% | pIC50 [7]: 5.72 | Inhibition (Cytochrome P450 2D6): Not Active | Inhibition (Cytochrome P450 3A4): Not Active | Inhibition (Cytochrome P450 1A2): Not Active | Inhibition (Cytochrome P450 2C9): Not Active | Inhibition (Cytochrome P450 2C19): Not Active | pIC50 [1]: 6.60 | pIC50 [2]: 7.24 | inhibition [13]: 2% | inhibition [14]: 28%
Compound: Cc1nc(N2CCCC2)nc2ccc(NC(=O)COc3ccc(Cl)cc3)cc12
pIC50 [12]: 5.00
